Experimental data published in ChEMBL document CHEMBL1201862, “PubChem BioAssay data set” (2004).
Active and inactive are the calls of the source.

Assays:
[1] = viability of PTEN-deleted HCT116 cells – cell-based, HCT116 PTEN knockout, dose response (AID 1047); assay type: functional;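 note: HCT116 colon tumor cells with PTEN knocked out; cells exposed to compound for 60 hours before readout; potency for loss of cell viability measured by luminescence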
[2] = viability of HCT116 lacking mutant beta-catenin – cell-based, human colon tumor, dose response (AID 1045); assay type: functional;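 note: HCT116 colon tumor cells with beta catenin knocked out; cells exposed to compound for 60 hours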
[3] = biological target: Voltage-dependent T-type calcium channel subunit alpha-1H (Homo sapiens, UniProt O95180); assay type: functional;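 note: channel activity triggered by adding a high calcium stimulation buffer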
[4] = biological target: T1, Mucolipin-3 (Homo sapiens, UniProt Q8TDD5); experiment: Dose response cell-based high-throughput screening assay for agonists of the transient receptor potential channel ML3 (TRPML3). [Related pubchem assays: 1526, 1424, 1448 ]; assay type: functional
T1 sequence (Q8TDD5 whole entry): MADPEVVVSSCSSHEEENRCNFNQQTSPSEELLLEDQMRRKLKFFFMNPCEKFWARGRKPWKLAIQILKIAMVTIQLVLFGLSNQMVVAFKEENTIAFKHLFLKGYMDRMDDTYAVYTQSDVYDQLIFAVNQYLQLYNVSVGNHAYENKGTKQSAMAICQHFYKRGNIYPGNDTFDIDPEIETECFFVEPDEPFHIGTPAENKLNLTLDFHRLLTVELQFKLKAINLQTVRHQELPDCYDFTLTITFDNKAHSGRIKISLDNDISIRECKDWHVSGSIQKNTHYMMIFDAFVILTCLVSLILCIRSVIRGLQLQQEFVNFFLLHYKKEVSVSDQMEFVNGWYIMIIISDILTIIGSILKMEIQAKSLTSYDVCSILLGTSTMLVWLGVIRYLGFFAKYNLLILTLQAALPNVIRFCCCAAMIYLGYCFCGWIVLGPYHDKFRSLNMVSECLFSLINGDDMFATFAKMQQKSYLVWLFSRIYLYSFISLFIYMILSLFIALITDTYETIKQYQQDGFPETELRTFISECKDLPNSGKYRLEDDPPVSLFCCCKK

[5] = biological target: T2, Calpain-2 catalytic subunit (Sus scrofa, UniProt P43367); experiment: m-calpain protease blockers, concentration series – biochemical, fluorogenic peptide substrate, dose response (AID 1420); assay type: functional
T2 sequence (P43367 whole entry): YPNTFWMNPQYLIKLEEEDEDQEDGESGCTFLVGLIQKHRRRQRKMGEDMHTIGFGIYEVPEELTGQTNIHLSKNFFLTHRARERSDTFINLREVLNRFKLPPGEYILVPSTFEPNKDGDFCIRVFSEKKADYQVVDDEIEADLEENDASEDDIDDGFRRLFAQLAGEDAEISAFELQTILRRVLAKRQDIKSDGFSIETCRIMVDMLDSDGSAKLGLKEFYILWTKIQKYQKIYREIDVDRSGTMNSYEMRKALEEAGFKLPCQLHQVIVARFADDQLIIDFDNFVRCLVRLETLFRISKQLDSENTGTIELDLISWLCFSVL

[6] = biological target: Ion channel NompC (Danio rerio, UniProt Q7T1G6); experiment: Fluorescence counterscreen assay for TRPML3 agonists: dose response cell-based high-throughput screening assay to identify agonists of the transient receptor potential channel N1 (TRPN1). [Related pubchem assays: 1526, 1424, 1448 ]; assay type: functional
[7] = biological target: DNA dC->dU-editing enzyme APOBEC-3A (Homo sapiens, UniProt P31941); experiment: Dose Response confirmation of small molecule APOBEC3A DNA Deaminase Inhibitors via a fluorescence-based single-stranded DNA deaminase assay. [Related pubchem assays (depositor defined):AID493011, AID493024]; assay type: functional
[8] = biological target: DNA dC->dU-editing enzyme APOBEC-3G (Homo sapiens, UniProt Q9HC16); assay type: functional;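 note: Dose-response counterscreen measuring inhibition of APOBEC3G DNA deaminase activity, run while confirming APOBEC3A inhibitors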
[9] = viability of uninfected HEp-2 cells – cell-based, HTS, cytotoxicity control for RSV inhibitor project, dose response (AID 2410); assay type: functional; details: human respiratory syncytial virus
[10] = Luminescence Cell-Based Dose Confirmation HTS to Identify Activators of 5'UTR Stem-Loop Driven Alpha-Synuclein mRNA Translation in H4 Neuroglioblastoma Cells. [Related pubchem assays: 1829 (Project Summary), 1814 (Primary HTS)]; assay type: functional
[11] = Luminescence Cell-Based Dose Response HTS to Identify Activators of Luciferase Translation or Activity in H4 […] Cells. [Related pubchem assays: 1829 (Project Summary), 1814 (Primary HTS)]; assay type: functional
[12] = tested on: H4; experiment: Luminescence Cell-Based Dose Response HTS to Identify Activators of 5'UTR Stem-Loop Driven Prion Protein mRNA Translation in H4 Neuroglioblastoma Cells. [Related pubchem assays: 1829 (Project Summary), 1814 (Primary HTS)]; assay type: functional; details: Homo sapiens
[13] = tested on: Vero; experiment: cells; assay type: functional, cell-based; details: Chlorocebus sabaeus
[14] = tested on: Vero; experiment: cells; assay type: functional; details: Chlorocebus sabaeus
[15] = cells
[16] = biological target: G-protein coupled receptor 55 (Homo sapiens, UniProt Q9Y2T6); experiment: inhibition of LPI-stimulated GPR55 beta-arrestin translocation – imaging, U2OS, beta-arrestin-GFP, LPI agonist, primary screen (AID 2013); assay type: functional;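 note: antagonist potency measured as reduced agonist-driven arrestin aggregation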
[17] = biological target: Dual specificity tyrosine-phosphorylation-regulated kinase 1A (Rattus norvegicus, UniProt Q63470); assay type: biochemical, Homo sapiens
[18] = Luminescence Cell-Based Dose Retest to Confirm Inhibitors of Cancer Stem Cells. [Related pubchem assays (depositor defined):AID2717, AID2721]; assay type: functional; details: Homo sapiens
[19] = biological target: T3, fMet-Leu-Phe receptor (Homo sapiens, UniProt P21462); experiment: formyl peptide receptor binders – dose response (AID 519); assay type: functional
T3 sequence (P21462 whole entry): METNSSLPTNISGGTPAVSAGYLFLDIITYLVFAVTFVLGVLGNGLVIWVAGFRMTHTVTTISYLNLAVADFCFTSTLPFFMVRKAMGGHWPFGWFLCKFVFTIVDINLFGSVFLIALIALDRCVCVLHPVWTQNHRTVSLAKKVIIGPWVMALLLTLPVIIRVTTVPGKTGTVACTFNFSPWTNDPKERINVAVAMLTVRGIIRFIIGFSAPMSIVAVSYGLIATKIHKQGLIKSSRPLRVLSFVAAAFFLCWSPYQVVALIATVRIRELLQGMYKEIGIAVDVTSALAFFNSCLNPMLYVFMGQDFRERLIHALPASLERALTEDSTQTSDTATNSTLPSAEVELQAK

[20] = THP-1 cell cytotoxicity, dose response, cytotoxicity control for non-replicating M. tuberculosis project (AID 489025); assay type: functional
[21] = HepG2 cell cytotoxicity, dose response, cytotoxicity control for non-replicating M. tuberculosis project (AID 489018); assay type: functional; details: Mycobacterium tuberculosis
[22] = Vero E6 cell cytotoxicity, dose response, cytotoxicity control for non-replicating M. tuberculosis project, secondary assay (AID 492998); assay type: functional, VeroE6; details: Vero C1008
[23] = cells; assay type: functional
[24] = tested on: H9c2; experiment: cells; assay type: functional, cell-based; details: Rattus norvegicus, H9c2, Myocardium;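 note: confirmatory concentration-response retest of ultra-high-throughput screening hits for modulation of myocardial damage; cell death induced by hydrogen peroxide oxidative stress; compound pretreatment for 60 min then peroxide exposure for 2 h; potency is for protecting the cells against peroxide damage rather than for killing them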
[25] = biological target: SUMO-activating enzyme (Homo sapiens, UniProt Q9UBT2); experiment: blockers of UBC9-mediated SUMO conjugation – biochemical, AlphaScreen, SUMOylation inhibitor project, confirmation (AID 2018); assay type: functional
[26] = cells; assay type: functional, cell-based
[27] = cells; assay type: functional, cell-based; remark: listed apart in the source
[28] = biological target: T4, Rac GTPase-activating protein 1 (Homo sapiens, UniProt Q9H0H5); experiment: blockers of MgcRacGAP-driven Rac1 GTP hydrolysis – biochemical, ADP Hunter fluorescence, primary and confirmatory, confirmation (AID 624330); assay type: functional
T4 sequence (Q9H0H5 whole entry): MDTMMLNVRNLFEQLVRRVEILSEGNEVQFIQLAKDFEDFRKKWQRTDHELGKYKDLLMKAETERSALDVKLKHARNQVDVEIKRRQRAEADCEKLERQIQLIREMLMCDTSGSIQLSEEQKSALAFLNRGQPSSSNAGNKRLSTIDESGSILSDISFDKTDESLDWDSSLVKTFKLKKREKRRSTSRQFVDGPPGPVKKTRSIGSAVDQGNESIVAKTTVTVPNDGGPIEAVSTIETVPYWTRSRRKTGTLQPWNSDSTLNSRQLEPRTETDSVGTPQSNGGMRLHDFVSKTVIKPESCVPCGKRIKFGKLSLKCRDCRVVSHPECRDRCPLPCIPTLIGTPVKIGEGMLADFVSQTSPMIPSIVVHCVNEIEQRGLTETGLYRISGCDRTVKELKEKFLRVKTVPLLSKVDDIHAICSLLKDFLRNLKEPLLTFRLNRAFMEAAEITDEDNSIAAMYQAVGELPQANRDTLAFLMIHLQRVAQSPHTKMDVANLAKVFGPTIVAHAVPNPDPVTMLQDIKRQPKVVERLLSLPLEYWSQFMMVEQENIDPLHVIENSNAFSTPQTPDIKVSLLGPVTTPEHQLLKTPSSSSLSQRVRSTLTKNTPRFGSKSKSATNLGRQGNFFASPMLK

[29] = tested on: INS1; experiment: INS-1E survival protection against cytokine death – cell-based, luminescence, retest, dose response (AID 449756); assay type: functional; details: Rattus norvegicus;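 note: cell death triggered by IL-1 beta plus TNF-alpha plus IFN-gamma mixture; protective hits raise ATP signal compared with cytokine alone wells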

DNA dC->dU-editing enzyme APOBEC-3G, sequence (Q9HC16 whole entry): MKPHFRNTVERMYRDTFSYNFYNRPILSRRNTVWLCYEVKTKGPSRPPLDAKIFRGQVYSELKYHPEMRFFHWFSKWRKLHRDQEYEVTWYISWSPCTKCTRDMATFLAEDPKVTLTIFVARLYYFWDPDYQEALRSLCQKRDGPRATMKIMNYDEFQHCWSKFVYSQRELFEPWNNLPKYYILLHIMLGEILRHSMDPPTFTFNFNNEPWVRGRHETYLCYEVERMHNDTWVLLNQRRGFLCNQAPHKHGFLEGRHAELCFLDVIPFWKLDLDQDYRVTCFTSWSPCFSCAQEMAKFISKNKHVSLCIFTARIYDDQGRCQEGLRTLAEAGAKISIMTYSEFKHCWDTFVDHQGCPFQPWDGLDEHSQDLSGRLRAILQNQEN
Voltage-dependent T-type calcium channel subunit alpha-1H, sequence (O95180 whole entry): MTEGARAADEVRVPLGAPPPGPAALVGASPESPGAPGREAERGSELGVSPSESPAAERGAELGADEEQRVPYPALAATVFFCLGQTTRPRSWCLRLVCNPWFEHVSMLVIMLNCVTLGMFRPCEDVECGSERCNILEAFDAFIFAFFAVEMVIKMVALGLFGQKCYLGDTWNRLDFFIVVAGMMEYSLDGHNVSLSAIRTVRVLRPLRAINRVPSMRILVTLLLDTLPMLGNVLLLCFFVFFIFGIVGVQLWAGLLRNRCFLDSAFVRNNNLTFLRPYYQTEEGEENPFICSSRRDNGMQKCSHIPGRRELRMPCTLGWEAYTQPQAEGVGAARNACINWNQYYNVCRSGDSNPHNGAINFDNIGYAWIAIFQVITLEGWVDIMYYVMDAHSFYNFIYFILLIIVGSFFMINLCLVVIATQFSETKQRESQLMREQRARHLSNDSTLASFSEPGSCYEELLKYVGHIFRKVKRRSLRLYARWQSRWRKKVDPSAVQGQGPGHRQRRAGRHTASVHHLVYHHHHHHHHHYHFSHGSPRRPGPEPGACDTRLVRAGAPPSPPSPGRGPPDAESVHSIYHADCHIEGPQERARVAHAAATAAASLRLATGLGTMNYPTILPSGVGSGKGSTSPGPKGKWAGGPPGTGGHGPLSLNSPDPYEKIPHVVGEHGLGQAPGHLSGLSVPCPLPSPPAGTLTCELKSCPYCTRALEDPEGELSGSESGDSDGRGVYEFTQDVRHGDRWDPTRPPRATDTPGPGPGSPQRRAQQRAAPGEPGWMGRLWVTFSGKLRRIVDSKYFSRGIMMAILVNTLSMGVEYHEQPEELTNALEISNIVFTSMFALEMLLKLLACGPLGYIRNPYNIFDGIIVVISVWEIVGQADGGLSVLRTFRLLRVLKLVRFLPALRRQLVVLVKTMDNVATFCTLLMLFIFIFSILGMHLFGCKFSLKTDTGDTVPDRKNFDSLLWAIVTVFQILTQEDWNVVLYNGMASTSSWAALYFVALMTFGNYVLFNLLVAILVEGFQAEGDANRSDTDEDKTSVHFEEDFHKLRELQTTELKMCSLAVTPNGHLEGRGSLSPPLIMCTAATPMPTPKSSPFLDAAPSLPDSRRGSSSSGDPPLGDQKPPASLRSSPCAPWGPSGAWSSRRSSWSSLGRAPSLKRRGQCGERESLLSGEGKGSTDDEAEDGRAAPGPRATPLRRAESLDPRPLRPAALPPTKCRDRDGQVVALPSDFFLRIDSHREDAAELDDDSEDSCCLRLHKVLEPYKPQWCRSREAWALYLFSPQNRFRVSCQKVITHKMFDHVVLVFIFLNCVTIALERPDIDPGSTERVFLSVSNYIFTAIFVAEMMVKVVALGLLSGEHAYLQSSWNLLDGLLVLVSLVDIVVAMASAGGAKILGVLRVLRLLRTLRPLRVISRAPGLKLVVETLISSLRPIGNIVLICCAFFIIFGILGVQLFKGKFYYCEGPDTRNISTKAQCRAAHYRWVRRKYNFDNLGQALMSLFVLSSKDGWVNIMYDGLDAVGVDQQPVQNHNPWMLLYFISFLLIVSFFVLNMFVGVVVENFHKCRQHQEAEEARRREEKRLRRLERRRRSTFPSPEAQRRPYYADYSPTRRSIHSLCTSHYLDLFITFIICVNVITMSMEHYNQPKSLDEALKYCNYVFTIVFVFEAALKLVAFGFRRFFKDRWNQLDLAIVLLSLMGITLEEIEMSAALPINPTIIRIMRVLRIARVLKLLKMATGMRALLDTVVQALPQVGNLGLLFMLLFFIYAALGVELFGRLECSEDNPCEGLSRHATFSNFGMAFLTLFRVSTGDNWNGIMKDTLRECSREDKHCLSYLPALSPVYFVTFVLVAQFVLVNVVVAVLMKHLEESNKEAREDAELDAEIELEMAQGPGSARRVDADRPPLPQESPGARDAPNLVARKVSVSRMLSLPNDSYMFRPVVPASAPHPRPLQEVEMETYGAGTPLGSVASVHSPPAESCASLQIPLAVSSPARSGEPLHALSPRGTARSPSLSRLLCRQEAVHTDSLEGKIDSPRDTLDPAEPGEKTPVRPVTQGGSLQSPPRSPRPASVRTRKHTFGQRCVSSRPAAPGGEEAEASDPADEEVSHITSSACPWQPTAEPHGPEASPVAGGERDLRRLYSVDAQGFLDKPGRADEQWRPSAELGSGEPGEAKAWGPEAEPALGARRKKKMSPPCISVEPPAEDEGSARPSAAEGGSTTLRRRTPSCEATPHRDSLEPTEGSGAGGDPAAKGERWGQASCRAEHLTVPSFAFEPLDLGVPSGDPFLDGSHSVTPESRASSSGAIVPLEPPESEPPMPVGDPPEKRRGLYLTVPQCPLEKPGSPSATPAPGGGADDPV
DNA dC->dU-editing enzyme APOBEC-3A, sequence (P31941 whole entry): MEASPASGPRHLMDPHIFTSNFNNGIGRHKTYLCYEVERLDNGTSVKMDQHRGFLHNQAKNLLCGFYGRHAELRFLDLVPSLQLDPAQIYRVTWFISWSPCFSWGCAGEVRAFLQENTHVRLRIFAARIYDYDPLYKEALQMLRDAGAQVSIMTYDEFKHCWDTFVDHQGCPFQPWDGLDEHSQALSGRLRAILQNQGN
G-protein coupled receptor 55, sequence (Q9Y2T6 whole entry): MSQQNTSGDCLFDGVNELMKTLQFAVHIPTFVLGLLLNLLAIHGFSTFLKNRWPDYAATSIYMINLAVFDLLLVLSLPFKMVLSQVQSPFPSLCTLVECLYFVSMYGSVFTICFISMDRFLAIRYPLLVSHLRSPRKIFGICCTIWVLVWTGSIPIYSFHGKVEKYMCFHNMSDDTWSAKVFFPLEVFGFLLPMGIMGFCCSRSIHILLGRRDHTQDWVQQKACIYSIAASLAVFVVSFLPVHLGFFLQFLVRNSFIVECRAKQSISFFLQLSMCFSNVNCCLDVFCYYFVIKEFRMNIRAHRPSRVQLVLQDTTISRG
SUMO-activating enzyme, sequence (Q9UBE0 whole entry): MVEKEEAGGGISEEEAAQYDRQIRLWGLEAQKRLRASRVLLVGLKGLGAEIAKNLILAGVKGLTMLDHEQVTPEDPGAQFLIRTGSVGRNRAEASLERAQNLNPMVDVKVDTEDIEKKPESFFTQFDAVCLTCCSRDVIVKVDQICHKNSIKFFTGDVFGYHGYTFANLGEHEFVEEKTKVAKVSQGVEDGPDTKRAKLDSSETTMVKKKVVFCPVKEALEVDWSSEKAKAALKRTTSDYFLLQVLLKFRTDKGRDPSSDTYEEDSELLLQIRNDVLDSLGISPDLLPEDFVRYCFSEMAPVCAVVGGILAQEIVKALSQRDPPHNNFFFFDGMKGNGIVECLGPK
SUMO-activating enzyme, sequence (Q9UBT2 whole entry): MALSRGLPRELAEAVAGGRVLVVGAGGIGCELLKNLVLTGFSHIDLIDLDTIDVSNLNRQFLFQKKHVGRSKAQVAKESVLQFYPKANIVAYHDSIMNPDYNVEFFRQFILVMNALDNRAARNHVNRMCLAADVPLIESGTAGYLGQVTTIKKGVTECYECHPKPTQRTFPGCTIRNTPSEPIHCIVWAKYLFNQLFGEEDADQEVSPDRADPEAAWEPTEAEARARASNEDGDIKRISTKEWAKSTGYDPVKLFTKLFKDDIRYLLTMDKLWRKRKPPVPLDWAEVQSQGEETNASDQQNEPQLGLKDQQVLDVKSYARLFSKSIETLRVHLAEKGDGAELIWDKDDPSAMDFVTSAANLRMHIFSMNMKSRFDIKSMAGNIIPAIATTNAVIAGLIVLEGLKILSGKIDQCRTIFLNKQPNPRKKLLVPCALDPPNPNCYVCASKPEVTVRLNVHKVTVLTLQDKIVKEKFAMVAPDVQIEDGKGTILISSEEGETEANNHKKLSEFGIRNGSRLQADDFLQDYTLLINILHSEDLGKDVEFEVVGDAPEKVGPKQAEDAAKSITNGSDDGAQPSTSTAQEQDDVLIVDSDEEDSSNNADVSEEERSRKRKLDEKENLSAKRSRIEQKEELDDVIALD

CC[n+]1c(/C=C/C=C/N(C(C)=O)c2ccccc2)sc2ccccc21
EC50 [1]: 20.8 µM (active) | EC50 [2]: 19.7 µM (active) | EC50 [3]: 2.21 µM (active)

Cc1cc(C(C)(C)C)oc1C(=O)N(CC(=O)NC1CCCC1)Cc1ccccc1Cl
EC50 [4]: > 29.9 µM (not active) | IC50 [5]: 2.28 µM (not active) | EC50 [6]: > 29.9 µM (not active)

C[N+](C)(C)CCCNC(=O)c1ccc(C=NO)nc1
IC50 [7]: 2.7 µM (active) | IC50 [8]: 4.16 µM (active)

Cn1c(C(=O)NCc2cccs2)cc2oc3ccccc3c21
CC50 [9]: 3.9 µM (active) | EC50 [10]: > 120 µM (not active) | EC50 [11]: 2.92 µM (active) | EC50 [12]: > 120 µM (not active) | IC50 [13]: 1.32 µM (active) | CC50 [14]: > 25 µM (active) | IC50 [15]: 18.4 µM (active)

CCc1ccccc1/N=C1/S/C(=C/c2ccccc2OCC(=O)N2CCOCC2)C(=O)N1C
IC50 [16]: 2.71 µM (active)

CC12CCC(C(=O)Nc3nc4ccc(Br)cc4s3)(OC1=O)C2(C)C (stereo not given)
AC50 [17]: 1.36 µM (active)

Cc1nn(-c2nc3ccccc3s2)c(C)c1Oc1ccccc1O
CC50 [9]: 20.6 µM (active) | AC50 [18]: 5.5 µM (active) | IC50 [13]: 11.7 µM (active) | CC50 [14]: > 25 µM (active) | Ki [19]: > 66.7 µM (inactive) | IC50 [15]: 15.6 µM (active)

CC(=O)c1ccc(C(=O)Nc2nnc(-c3ccc(Cl)cc3)o2)cc1
CC50 [20]: 7.9 µM (active) | CC50 [21]: 13.1 µM (active) | CC50 [22]: 8.62 µM (active) | IC50 [23]: 0.47 µM (active) | IC50 [24]: > 79 µM (inactive)

COc1ccc([N+](=O)[O-])cc1CSc1ccccn1
IC50 [7]: 8.44 µM (active) | IC50 [8]: 7.41 µM (active)

O=C(N=Nc1c(O)[nH]c2ccc([N+](=O)[O-])cc12)c1ccccc1[N+](=O)[O-]
IC50 [15]: 26.2 µM (active)

COc1ccc(-c2nnc(SCC(=O)Nc3cc(C)on3)[nH]2)cc1
IC50 [25]: > 100 µM (inactive)

CCN(CCCNC(=O)CCc1nc(-c2ccc(OC)cc2)no1)c1cccc(C)c1
EC50 [26]: > 350 µM (not active) | EC50 [27]: > 350 µM (not active) | EC50 [3]: 4.41 µM (active)

COc1cc(/C=C2\Oc3cc(O)ccc3C2=O)ccc1O
AC50 [17]: 0.641 µM (active) | IC50 [28]: 26 µM (active)

Cc1ccccc1-c1cc(C(=O)Nc2sc(C)c(C)c2C(N)=O)c2ccccc2n1
IC50 [16]: 2.76 µM (active) | AC50 [29]: 5.87 µM (active)

CCN(c1ccccc1)S(=O)(=O)c1ccc(Cl)c(NC(=O)CSc2n[nH]c(N)n2)c1
CC50 [9]: 44.2 µM (active) | IC50 [15]: 7.78 µM (active)

Cc1csc(NC(=O)CSc2nc3ccccc3s2)n1
EC50 [3]: 7.68 µM (active)

CCCc1n(CC(O)COC2CCCCC2)c2ccccc2[n+]1CC (stereo not given)
IC50 [7]: 3.26 µM (active) | IC50 [8]: 3.93 µM (active)

COc1ccc(/C=C/C(=O)O)cc1 [4-METHOXYCINNAMIC ACID]
AC50 [17]: 21 µM (active)
